Data from PMC9382192, “Combined treatment with epigenetic agents enhances anti-tumor activity of MAGE-D4 peptide-specific T cells by upregulating the MAGE-D4 expression in glioma” (Frontiers in Oncology, 2022).

Test system: HLA-A2
Assay: HLA-A2 expression in U87
Assay type: cell-based, human
Conditions: TSA 1 μM 24 h
Experimental: The human glioma cell lines (U87-MG and U251) were obtained from the Cell Bank of Type Culture Collection of the Chinese Academy of Science (Shanghai, China). […] A3656), valproic acid (VPA, CAS No. 99-66-1), and trichostatin A (TSA, CAS No. 58880-19-6) were purchased from Sigma-Aldrich Corporation (St. Louis, MO, USA). DAC and TSA were dissolved in DMSO to a concentration of 10 mM. Aliquots were stored at -80°C and diluted with media before being used. Drug treatments were divided into seven groups: (1) DAC group: cells were cultured in medium on the presence of 1 μM DAC for 120 h; (2) VPA group: cells were grown in medium containing 1 mM VPA for 120 h; (3) TSA group: cells were cultured in medium supplemented with 1 μM TSA for 24 h; (4) D + V group: cells were cultured with 1 μM DAC and 1 mM VPA for 120 h; (5) D + T group: cells were cultured with 1 μM DAC for 120 h, followed by 1 μM TSA for 24 h; (6) Control group: cells were cultured with 0.09% DMSO, which is the highest concentration of DMSO used in this study in consideration of the potential toxicity of DMSO to living cells. […] The cells were then harvested, washed with PBS buffer three times, and analyzed by a FACScan flow cytometer (BD Biosciences, Franklin Lakes, NJ, USA) using BD AccuriTM C6 Software (BD Biosciences).

## CC(/C=C/C(=O)NO)=C\[C@@H](C)C(=O)c1ccc(N(C)C)cc1 [TSA, trichostatin A]
  HLA-A2 levels: elevated HLA-A2 levels with statistical significance
